# Data: patent publication US5075287A, “Muramyl peptide derivatives and immunoregulating compositions containing them” (priority 1989, dated 1991)
# Like-named read-outs stand apart in the source and are kept apart here.
# Legend:
# [1] = system: hepatitis B virus surface antigen (HBs); assay: Hepatitis-vaccine enhancing activity (adjuvant activity): anti-HBs IgG in mouse serum by ELISA; type: in vivo, female CDF1 mice; details: Experiment 2, 2000-fold dilution
# Description: A compound of the present invention was dissolved in lipidmicrosphere (1 mg/ml). On the other hand, a solution of hepatitis B virus surface antigen (HBs) in physiological saline was prepared (50 μg/ml). The above solutions in equal amounts were mixed to prepare a test solution. A control solution was prepared by the exclusion of the compound of the present invention from said test solution. A mixture of a suspension of aluminium hydroxide gel in physiological saline (1 mg/ml) and said hepatitis vaccine preparation in equal amounts was prepared as another control solution. The test solution (0.2 ml) was intraperitoneally administered to each mouse in one group consisting of seven female CDF1 mice.
# Blood samples were collected from the fundus ocluli vein of each mouse every week after the administration and then centrifuged to obtain serums. Three weeks after the administration, 0.2 ml of the test liquid was intraperitoneally administered again to each mouse for secondary stimulation. Then blood collecting was conducted every week to obtain serums after the application of the secondary stimulation, in the same manner as that described above.
# The amount of the IgG antibodies against the hepatitis B virus surface antigens (HBs) in the serums thus obtained was determined with an ELISA method.
# [2] = system: influenza HA vaccine (B/Nagasaki/1/87 strain); type: in vivo, female CDF1 mice; details: Experiment 2, 8000-fold dilution
# [3] = 4 W (after secondary stimulation at 3 weeks)
# [4] = 5 W (after secondary stimulation at 3 weeks)
Structure (SMILES),Anti-HBs IgG antibody level in serum (ELISA absorbance at 415 nm) ([1]; 1 W) [O.D 415 nm],Anti-HBs IgG antibody level in serum (ELISA absorbance at 415 nm) ([1]; 2 W) [O.D 415 nm],Anti-HBs IgG antibody level in serum (ELISA absorbance at 415 nm) ([1]; 3 W) [O.D 415 nm],"Anti-HBs IgG antibody level in serum (ELISA absorbance at 415 nm) [1, 3] [O.D 415 nm]","Anti-HBs IgG antibody level in serum (ELISA absorbance at 415 nm) [1, 4] [O.D 415 nm]",Anti HA serum antigen value (average value ± S.D.) ([2]; 1 W) [O.D 415 nm],Anti HA serum antigen value (average value ± S.D.) ([2]; 2 W) [O.D 415 nm],Anti HA serum antigen value (average value ± S.D.) ([2]; 3 W) [O.D 415 nm],"Anti HA serum antigen value (average value ± S.D.) [2, 3] [O.D 415 nm]","Anti HA serum antigen value (average value ± S.D.) [2, 4] [O.D 415 nm]"
"CCCCCCCCCCCCCCCCCC(=O)OC[C@H]1O[C@@H](SC(=O)C[C@@H](CCCCCCCCCCC)OC(=O)CCCCCCCCCCCCCCC)[C@H](NC(C)=O)[C@@H](O[C@H](C)C(=O)N[C@@H](C)C(=O)N[C@H](CCC(=O)OC)C(N)=O)[C@@H]1O [Example 20, N-[2-0-{2-Acetamido-2,3-dideoxy-6-0-octadecanoyl-1-S-((3R)-3-hexadecanoyloxytetradecanoyl)-1-thio-β-D-glucopyranos-3-yl}-D-lactoyl]-L-alanYl-D-isoglutamine methylester]",0.002 ± 0.001,0.044 ± 0.005,0.056 ± 0.003,0.814 ± 0.018,0.708 ± 0.002,0.001 ± 0.001,0.071 ± 0.001,0.110 ± 0.008,0.840 ± 0.011,0.857 ± 0.023
CCCCCCCCCCCCCCCCCC(=O)OC[C@H]1O[C@H](OC(=O)C[C@@H](CCCCCCCCCCC)OC(=O)CCCCCCCCCCCCCCCCC)[C@H](NC(C)=O)[C@@H](O[C@H](C)C(=O)N[C@@H](C)C(=O)N[C@H](CCC(=O)OC)C(N)=O)[C@@H]1O [Example 22],0.005 ± 0.004,0.036 ± 0.007,0.053 ± 0.001,0.294 ± 0.006,0.254 ± 0.002,0.001 ± 0.004,0.065 ± 0.001,0.100 ± 0.003,0.411 ± 0.009,0.492 ± 0.002
"CCCCCCCCCCCCCCCCCCCCCCCC(=O)O[C@H](CCCCCCCCCCC)CC(=O)S[C@@H]1O[C@H](COC(=O)CCCCCCCCCCCCCCCCC)[C@@H](O)[C@H](O[C@H](C)C(=O)N[C@@H](C)C(=O)N[C@H](CCC(=O)OC)C(N)=O)[C@H]1NC(C)=O [Example 28, N-[2-0-{2-Acetamido-2,3-dideoxy-6-0-octadecanoyl-1-S-((3R}-3-tetracosanoyloxytetradecanoyl)-1-thio-β-D-glucopyranos-3-Yl}-D-lactoyl]-L-alanyl-D-isoglutamine methylester]",0.005 ± 0.003,0.062 ± 0.004,0.086 ± 0.004,0.611 ± 0.018,0.543 ± 0.029,0.008 ± 0.004,0.041 ± 0.004,0.061 ± 0.001,0.787 ± 0.018,0.779 ± 0.024
"CCCCCCCCCCCCCCCCCC(=O)O[C@H](CCCCCCCCCCC)CC(=O)O[C@H]1O[C@H](CO)[C@@H](O)[C@H](O[C@H](C)C(=O)N[C@@H](C)C(=O)N[C@H](CCC(=O)OC)C(N)=O)[C@H]1NC(C)=O [Example 21, N-[2-0-{2-Acetamido-2,3-dideoxy-1-0-((3R)-3-octadecanoyloxytetradecanoyl)-α-D-glucopyranos-3-yl}-D-lactoyl]-L-alanyl-D-isoglutamine methylester]",0.006 ± 0.004,0.038 ± 0.000,0.058 ± 0.007,0.517 ± 0.006,0.498 ± 0.011,0,0.060 ± 0.001,0.097 ± 0.002,0.748 ± 0.003,0.758 ± 0.012
"CCCCCCCCCCCCCCCCCC(=O)OC[C@H]1O[C@@H](SC(=O)C[C@@H](CCCCCCCCCCC)OC(=O)CCCCCCCCCCCCCCCCC)[C@H](NC(C)=O)[C@@H](O[C@H](C)C(=O)N[C@@H](C)C(=O)N[C@H](CCC(=O)O)C(N)=O)[C@@H]1O [Example 24, N-[2-0-{2-Acetamido-2,3-dideoxy-6-0-octadecanoyl-1-S-((3R)-3-octadecanoyloxytetradecanoyl)-1-thio-β-D-glucopyranos-3-yl}-D-lactoyl]-L-alanyl-D-isoglutamine]",0.007 ± 0.001,0.034 ± 0.001,0.050 ± 0.000,0.579 ± 0.007,0.513 ± 0.011,0.006 ± 0.001,0.085 ± 0.005,0.113 ± 0.007,0.771 ± 0.003,0.791 ± 0.004
"CCCCCCCCCCCCCCCC(=O)O[C@H](CCCCCCCCCCC)CC(=O)O[C@H]1O[C@H](CO)[C@@H](O)[C@H](O[C@H](C)C(=O)N[C@@H](C)C(=O)N[C@H](CCC(=O)OC)C(N)=O)[C@H]1NC(C)=O [Example 17, N-[2-0-{2-Acetamido-2,3-dideoxy-1-0-((3R)-3-hexadecanoyloxytetradecanoyl)-α-D-glucopyranos-3-yl}-D-lactoyl]-L-alanyl-D-isoglutamine methylester]",0.001 ± 0.004,0.026 ± 0.001,0.051 ± 0.001,0.642 ± 0.021,0.615 ± 0.021,0.010 ± 0.002,0.122 ± 0.006,0.191 ± 0.001,0.611 ± 0.017,0.696 ± 0.014
"CCCCCCCCCCCCCCCCCC(=O)O[C@H](CCCCCCCCCCC)CC(=O)S[C@@H]1O[C@H](CO)[C@@H](O)[C@H](O[C@H](C)C(=O)N[C@@H](C)C(=O)N[C@H](CCC(=O)OC)C(N)=O)[C@H]1NC(C)=O [Example 23, N-[2-0-{2-Acetamido-2,3-dideoxy-1-S-((3R)-3-octadecanoyloxytetradecanoyl)-1-thio-β-D-glucopyranos-3-yl}-D-lactoyl]-L-alanyl-D-isoglutamine methylester]",0.004 ± 0.001,0.051 ± 0.003,0.092 ± 0.004,0.639 ± 0.003,0.626 ± 0.008,0.008 ± 0.005,0.096 ± 0.001,0.183 ± 0.004,0.949 ± 0.006,1.030 ± 0.003
